Legend:
[1] = biological target: T1, CYP2C8 (Homo sapiens, UniProt P10632); assay: Time-dependent inhibition (IC50 shift) of CYP2C8 in human liver microsomes; details: microsomes
T1 sequence (P10632 1-490): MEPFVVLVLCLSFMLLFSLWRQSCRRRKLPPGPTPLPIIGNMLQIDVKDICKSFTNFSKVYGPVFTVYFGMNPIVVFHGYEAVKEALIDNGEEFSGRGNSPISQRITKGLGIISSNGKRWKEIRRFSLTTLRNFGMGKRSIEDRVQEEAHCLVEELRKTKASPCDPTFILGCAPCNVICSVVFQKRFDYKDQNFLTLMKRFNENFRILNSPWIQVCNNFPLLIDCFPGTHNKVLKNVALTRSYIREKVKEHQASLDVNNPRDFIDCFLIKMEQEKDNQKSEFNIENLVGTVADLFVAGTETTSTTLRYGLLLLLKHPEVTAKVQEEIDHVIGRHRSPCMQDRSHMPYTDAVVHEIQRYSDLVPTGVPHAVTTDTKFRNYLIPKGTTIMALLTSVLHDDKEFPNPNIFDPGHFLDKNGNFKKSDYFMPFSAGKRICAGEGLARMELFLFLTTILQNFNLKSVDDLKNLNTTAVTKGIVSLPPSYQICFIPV
Experimental: Donors CMV negative for serology are unm
All incubations were conducted in duplicate.
% remaining=(C+I/C^−I)*100

[2] = biological target: T2, CYP2B6 (Homo sapiens, UniProt P20813); assay: biochemical
T2 sequence (P20813 1-491): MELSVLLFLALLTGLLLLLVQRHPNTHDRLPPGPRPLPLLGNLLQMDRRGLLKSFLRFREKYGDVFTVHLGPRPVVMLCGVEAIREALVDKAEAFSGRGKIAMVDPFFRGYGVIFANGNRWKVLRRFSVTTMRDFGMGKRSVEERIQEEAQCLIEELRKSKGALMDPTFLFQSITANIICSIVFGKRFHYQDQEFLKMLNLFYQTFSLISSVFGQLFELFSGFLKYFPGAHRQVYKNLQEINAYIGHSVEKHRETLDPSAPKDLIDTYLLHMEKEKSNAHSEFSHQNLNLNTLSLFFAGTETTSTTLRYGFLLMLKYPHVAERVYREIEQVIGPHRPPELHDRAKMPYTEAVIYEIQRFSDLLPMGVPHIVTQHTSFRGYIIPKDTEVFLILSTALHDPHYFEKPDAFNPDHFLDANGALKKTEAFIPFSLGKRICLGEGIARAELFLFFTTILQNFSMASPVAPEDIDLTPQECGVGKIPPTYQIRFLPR

[3] = urine; cited from earlier work

`Cc1ccc(C)c(OCCCC(C)(C)C(=O)O[C@@H]2O[C@H](C(=O)O)[C@@H](O)[C@H](O)[C@H]2O)c1` [Gemfibrozil glucuronide, reference compound] gave an IC50 [1] of 0.76 µM.

In the case of `CC(=O)N1CCN(c2ccc(OCC3COC(Cn4ccnc4)(c4ccc(Cl)cc4Cl)O3)cc2)CC1` (stereo not drawn) [Ketoconazole, reference compound], the IC50 [2] is reported as 3.4 µM.

For `Cc1ncc2n1-c1ccc(Cl)cc1C(c1ccccc1F)=NC2` [midazolam, 8-chloro-6-(2-fluorophenyl)-1-methyl-4H-imidazo[1,5-a][1,4]], the dose excreted unchanged [3] is listed as 1%.

Reference: patent publication US20220168307A1, “TREATMENT OF SMA” (Hoffmann-La Roche Inc., priority 2019, published 2022)
